Measurements as given in patent publication US20230257761A1, “HERBICIDE RESISTANT PLANT” (INSTITUTE OF GENETICS AND DEVELOPMENTAL BIOLOGY, CHINESE …, priority 2019, published 2023).

Assays:
Assay type in all cases: in vivo
[1] = system: rice cultivar Zhonghua 11; assay: Spraying of stems and leaves of regenerated T0 rice plants with Haloxyfop-P
Text: According to the growth state of the regenerated plants, the T0 generation plants regenerated on the medium were placed in water for 5 to 30 days, and then the plant stems and leaves were directly sprayed with Haloxyfop-P, and the spray concentration range is between 0.1 and 2 times of the recommended concentration of commercial preparations. Four weeks after spraying, a total of 5 surviving mutants, ie, herbicide-resistant mutants, were obtained (FIG. 3).

[2] = system: rice tissue culture seedlings; assay: Spraying of rice tissue culture seedlings with HPPD herbicide; details: about two weeks after spraying, ⅛ of the field concentration; for leaves and growth of overexpressing positive rice seedlings: rice overexpressing HPPD protein; for leaves of wild-type rice tissue culture seedlings: wild-type rice without resistance
Experimental: The rice tissue culture seedlings overexpressing HPPD protein were used as the positive control, and the wild-type rice plants of the same stage and variety were used as the negative control. Each group of 8 plants was sprayed with different concentration gradients of herbicide: mesotrione or Topramezone. […] The herbicide concentration, that is, ⅛ of the field concentration of mesotrione or Topramezone, is a suitable screening concentration. The rice plants obtained in Example 2 were treated at this screening concentration to obtain herbicide-resistant plants

[3] = system: wheat (Triticum aestivum L.); assay: Herbicide screening: imazapic added to wheat rooting medium
Experimental: The existing imazapic-resistant wheat plants were used as positive control, and wild-type wheat was used as negative control. Different concentrations of imazapic were added to the wheat rooting medium, and an appropriate screening concentration was found, that is, 1/15 of the concentration of imazapic used in the field.

Row | SMILES | leaves and growth of overexpressing positive rice seedlings [2] | leaves of wild-type rice tissue culture seedlings [2] | also measured
1 | C[C@@H](Oc1ccc(Oc2ncc(C(F)(F)F)cc2Cl)cc1)C(=O)O [Haloxyfop-P] | – | – | number of surviving (herbicide-resistant) mutants ([1]; base-edited T0 plants, four weeks after spraying, 0.1 to 2 times the recommended concentration of commercial preparations): 5; state of heart leaves of wild-type rice after spraying ([1]; wild-type Zhonghua No. 11 (WT), FIG. 3): dry and dead
2 | Cc1c(C(=O)c2cnn(C)c2O)ccc(S(C)(=O)=O)c1C1=NOCC1 [Topramezone] | normal and grew normally | turned white and then withered slowly | –
3 | Cc1cnc(C2=NC(=O)C(C)(C(C)C)N2)c(C(=O)O)c1 (centres unmarked) [imazapic] | – | – | rooting of positive control wheat ([3]; existing imazapic-resistant (overexpression-positive) wheat, rooting medium with 1/15 of the field concentration of imazapic): grow roots normally; rooting of wild-type wheat ([3]; wild-type wheat (negative control), rooting medium with 1/15 of the concentration of imazapic used in the field): significantly inhibited
4 | CS(=O)(=O)c1ccc(C(=O)C2C(=O)CCCC2=O)c([N+](=O)[O-])c1 [mesotrione] | normal and grew normally | turned white and then withered slowly | –
